Experiments:
[1] = tested on: Huh7 cells expressing PNPLA3 I148M-tagRFP; test: Lipid droplet dispersion / normalization of lipid droplet morphology in Huh7 PNPLA3 I148M-tagRFP cells; assay type: cell-based, human
From the text: During the HTS we observed that PNPLA3 I148M-tagRFP expression altered the morphology of lipid droplets compared to the Huh7 parental control cells. PNPLA3 I148M-tagRFP expression leads to clustering of large lipid droplets around the nucleus and a reduction of small cytoplasmic lipid droplets, which is reflected by changes (lowering) in the number of lipid droplets scorable by the lipid droplet detection algorithm per cell (Figures 4A and 4B, Video S1). Indeed, a role for PNPLA3 I148M in the regulation of lipid droplet morphology is known.[12]^,[13]^,[15]^,[16]^,[21]^,[33] We speculated that reduction of PNPLA3 I148M-tagRFP on lipid droplets of Huh7 cells should therefore restore lipid droplet morphology back to the WT situation in the parental cell line. For this we analyzed all hits at the retest stage in the primary assay. […]
Images were analyzed using Harmony (Revvity) and MetaXpress software (Molecular Devices, USA) to quantify lipid droplet morphology and PNPLA3 I148M-tagRFP intensity.
Assay plates were evaluated based on Z’ scores (>0.6) and signal-to-background ratio (>12) using Genedata Screener® for HTS and Condoseo modules (Genedata, Switzerland). […] Automated image analysis routines were set up to quantify the number, morphology and intensity of nuclei, lipid droplets and the intensity of PNPLA3 I148M-tagRFP on lipid droplets. […]

PNPLA3 I148M-tagRFP = molecular target: T1, PNPLA3 I148M-tagRFP (Homo sapiens, UniProt Q9NST1, I148M); test: Time-lapse imaging of PNPLA3 I148M-tagRFP on lipid droplets in Huh7 cells; assay type: cell-based; conditions: 1μM or 5μM; Huh7
T1 construct: host or cells: Huh7
T1 sequence (Q9NST1 1-481 I148M): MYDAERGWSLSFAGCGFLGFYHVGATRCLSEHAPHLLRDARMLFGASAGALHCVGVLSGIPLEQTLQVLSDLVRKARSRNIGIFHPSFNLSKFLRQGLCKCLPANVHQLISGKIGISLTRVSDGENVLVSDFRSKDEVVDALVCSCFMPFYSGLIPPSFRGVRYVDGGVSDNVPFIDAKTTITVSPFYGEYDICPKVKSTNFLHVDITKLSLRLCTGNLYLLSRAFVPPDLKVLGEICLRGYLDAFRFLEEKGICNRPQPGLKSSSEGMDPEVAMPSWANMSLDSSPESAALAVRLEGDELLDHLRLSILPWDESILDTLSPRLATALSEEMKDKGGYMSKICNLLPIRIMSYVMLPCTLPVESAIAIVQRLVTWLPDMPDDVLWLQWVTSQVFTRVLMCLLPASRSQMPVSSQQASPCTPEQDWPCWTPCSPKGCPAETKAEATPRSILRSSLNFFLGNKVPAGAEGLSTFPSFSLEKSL
Method: To evaluate the kinetics of NUV-244 mediated reduction and degradation of PNPLA3 I148M-tagRFP, we performed time-lapse studies to follow PNPLA3 I148M-tagRFP over time (Figures 5A and 5B). 1μM or 5μM NUV-244 leads to rapid onset of reduction of PNPLA3 I148M-tagRFP on lipid droplets with half maximum effect reached after approximately 2h. To evaluate if PNPLA3 I148M-tagRFP degradation is 26S proteasome dependent, 1μM Bortezomib was co-incubated with NUV-244. Proteasome inhibition prevents PNPLA3 I148M-tagRFP reduction from lipid droplets (Figures 5A and 5B). […] A recent paper identified the E3 ligase responsible for the turnover of endogenous PNPLA3, the ER associated E3 ligase BFAR.[18]
Huh7 cells expressing PNPLA3 I148M-tagRFP were seeded at 4000 cells/well in 30 μL media in 384-well imaging plates (Revvity, PhenoPlate) and stored in a 37°C incubator with 5% CO2 and 95% humidity overnight. Cells were then incubated with Bodipy diluted in growth medium (38nM final concentration) for 1h at 37°C with 5% CO2 and 95% humidity. Cells were treated with DMSO control, 1 μM or 5 μM NUV-244, with or without 1 μM Bortezomib or 5 μM MLN7243. Cells were imaged every 15 minutes over a 20-hour period using an Opera Phenix confocal spinning disc microscope system (Revvity) with a 20x water objective at 561 nm (tagRFP) and 488 nm (BODIPY). Images were analyzed using Harmony software. PNPLA3 I148M-tagRFP intensity on lipid droplets was quantified and compared between treatments.

LX-2 cells = test: Incucyte growth curves, LX-2; assay type: cell-based, human; conditions: 1μM or 5μM; compared to DMSO
Method: Huh7, Huh7 PNPLA3 I148M, Huh7 PNPLA3, Hep3b and LX-2 cells were seeded at a concentration of 1000 cells/well in 60 μl of growth medium on 384-well microtiter plates (Revvity, Waltham, MA, USA, PhenoPlate 384-well microplate, #6057308) and stored in a 37°C incubator with 5% CO2 and 95% humidity overnight. Next day cells were treated with DMSO as control (1% final concentration) or compound (1μM or 5μM final concentration) and cell density was recorded in the Incucyte® life cell imager (Sartorius, Göttingen, Germany) every 4 hours over a period of 5 days. Growth curves were generated by monitoring confluence over time. Proliferative capacity of PNPLA3 I148M-expressing cells was compared to control cells, and the restoration of proliferative fitness was analyzed.

Cc1cccc(Cc2nc(C)c(C(=O)Nc3cc(O)ccc3Cl)s2)c1 [NUV-244]
appearance of small mobile lipid droplets (time-lapse) ([1]; 5μM for 24h, Huh7 expressing PNPLA3 I148M): partially restore | EC50 ([1]; Homo sapiens, Huh-7, resynthesis, representative curve, Figure 4C, read-out: EC50 [M] Lipid droplet aggregates): 4.84e-07 M | time to half maximum effect of reduction of PNPLA3 I148M-tagRFP on lipid droplets (PNPLA3 I148M-tagRFP): approximately 2 h | effect on proliferative capacity, LX-2 (LX-2 cells): no effects
